{"source": "patent US20250186751A1", "about": "“BREATH-POWERED NASAL DEVICES FOR TREATMENT OF TRAUMATIC BRAIN INJURY (TBI), INCLUDING CONCUSSION, AND METHODS AND METHODS” (Odyssey Health, Inc., priority 2021, published 2025)", "key": {"[1]": {"experiment": "preclinical studies of neuroprotective effects", "assay_type": "in vivo", "settings": "compared to related neurosteroids", "excerpt": "(§1) ent-19-norprogesterone is a fully synthetic, non-naturally, occurring neurosteroid."}, "[2]": {"system": "animal models of concussion", "experiment": "animal models of concussion", "assay_type": "in vivo", "excerpt": "as §1"}}, "data": [{"smiles": "CC(=O)[C@@H]1CCC2C3CCC4=CC(=O)CC[C@H]4C3CC[C@]21C", "note": "(single isomer, unassigned) [ent-19-norprogesterone, ent-19-norpregn-4-ene-3,20-dione]", "values": [{"measurement": "neuroprotective effects", "setting": "[1]", "value": "equivalent, if not superior, neuroprotective effects compared to related neurosteroids"}, {"measurement": "behavioral pathology associated with brain injury symptoms such as memory impairment, anxiety, and motor/sensory performance", "setting": "[2]", "value": "reduces the behavioral pathology"}]}]}
